Source: patent US9174980B2, “Heterocyclic compounds as inhibitors of leukotriene production” (Boehringer Ingelheim International GmbH, priority 2012, dated 2015)

Assays:
[1] = tested on: synthesis of LTB4 in human whole blood; test: Human whole blood assay (calcimycin-stimulated LTB4 synthesis); assay type: cell-based; settings: Homo sapiens; read-out: Human Whole Blood LTB4 Assay for FLAP (IC50 nM)
Experimental: Compounds are additionally tested in a human whole blood assay to determine their ability to inhibit the synthesis of LTB4 in a cellular system. Compounds are combined with heparinized human whole blood and incubated for 15 minutes at 37° C. Calcimycin (20 μM final, prepared in phosphate-buffered saline, pH 7.4) is then added and the mixture is incubated for another 30 minutes at 37° C. The samples are centrifuged for 5 min at low speed (1500×g) and the plasma layer is removed. Plasma LTB4 concentrations are then measured using an antibody-based homogenous time-resolved fluorescence method (CisBio, Bedford, Mass.).

[2] = molecular target: T1, recombinant human FLAP protein (Homo sapiens, UniProt P20292); test: FLAP binding assay (Scintillation Proximity Assay, displacement of [125I]L-691,831); settings: read-out: Human FLAP SPA Binding (IC50 nM)
T1 construct: made in house; host or cells: Sf9 insect cells (membrane fraction, 100,000 x g pellet)
T1 sequence (P20292 1-161): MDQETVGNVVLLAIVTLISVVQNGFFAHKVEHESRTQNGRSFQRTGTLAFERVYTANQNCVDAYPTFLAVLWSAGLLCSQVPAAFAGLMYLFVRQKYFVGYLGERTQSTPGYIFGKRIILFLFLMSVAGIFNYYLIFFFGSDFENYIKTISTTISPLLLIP
Experimental: Compounds are assessed for the ability to bind to FLAP in a binding assay that measures compound-specific displacement of an iodinated (^125I) FLAP inhibitor via a Scintillation Proximity Assay format (adapted from S. Charleson et al., Mol. Pharmacol., 1992, 41, 873-879).
Cell pellets produced from sf9 insect cells expressing recombinant human FLAP protein are resuspended in buffer A [15 mM Tris-HCl (pH 7.5), 2 mM MgCl2, 0.3 mM EDTA, 1 mM PMSF]. The cells are lysed with a Dounce homogenizer and the material is centrifuged at 10,000×g for 10 minutes. The supernatant is then collected and centrifuged at 100,000×g for 60 minutes. To prepare membrane protein for an assay, an aliquot of the 100,000×g pellet is resuspended in 1 ml of buffer A, Dounce homogenized, and finally subjected to polytron mixing (30 seconds). Membrane protein (25 μl, 5 μg) is mixed with WGA SPA beads (Amersham) and stirred for 1 h. To an assay plate (Perkin Elmer FlexiPlate) is added 25 μl of test compound prepared in Binding buffer [100 mM Tris (pH 7.5), 140 mM NaCl, 5% glycerol, 2 mM EDTA, 0.5 mM TCEP, 0.05% Tween 20], 25 μl of [^125I]L-691,831 (an iodinated analog of MK-591, Charleson et al. Mol. Pharmacol., 41, 873-879, 1992) and finally 50 μl of the bead/protein mixture. (final concentrations: beads, 200 μg/well; protein, 5 μg/well; [^125I] probe, 0.08 nM/well (17 nCi/well). The plates are shaken for 2 h before reading on a Microbeta plate reader. Non-specific binding is determined by the addition of 10 μM cold L-691,831 compound.

Structure (SMILES) | IC50 [1] | IC50 [2]
Nc1ncc(-c2ccc(C3(c4c[nH]c5cc(C(=O)NC6CCS(=O)(=O)C6)ccc45)CCC3)cc2)cn1 (stereo not shown) [Example 1, 3-{1-[4-(2-aminopyrimidin-5-yl)phenyl]cyclobutyl}-N-(1,1-dioxidotetrahydrothiophen-3-yl)-1H-indole-6-carboxamide] | 1300 nM | 1.3 nM
CN(CCS(C)(=O)=O)C(=O)c1cccc2c(C3(c4ccc(-c5cnc(N)nc5)cc4)CCC3)c[nH]c12 [Example 2, 3-{1-[4-(2-aminopyrimidin-5-yl)phenyl]cyclobutyl}-N-methyl-N-[2-(methylsulfonyl)ethyl]-1H-indole-7-carboxamide] | 490 nM | 1.9 nM
CS(=O)(=O)CCNC(=O)c1cccc2c(C3(c4ccc(-c5cnc(N)nc5)cc4)CCC3)c[nH]c12 [Example 3, 3-{1-[4-(2-aminopyrimidin-5-yl)phenyl]cyclobutyl}-N-[2-(methylsulfonyl)ethyl]-1H-indole-7-carboxamide] | 490 nM | 1.4 nM
Nc1ncc(-c2ccc(C3(c4c[nH]c5c(C(=O)NCCS(N)(=O)=O)cccc45)CCC3)cc2)cn1 [Example 4, 3-{1-[4-(2-aminopyrimidin-5-yl)phenyl]cyclobutyl}-N-(2-sulfamoylethyl)-1H-indole-7-carboxamide] | 2800 nM | 1.2 nM
Nc1ncc(-c2ccc(C3(c4c[nH]c5c(C(=O)NC6CCS(=O)(=O)C6)cccc45)CCC3)cc2)cn1 (stereo not shown) [Example 5, 3-{1-[4-(2-aminopyrimidin-5-yl)phenyl]cyclobutyl}-N-(1,1-dioxidotetrahydrothiophen-3-yl)-1H-indole-7-carboxamide] | 220 nM | 0.72 nM
CNC(=O)c1cccc2c(C3(c4ccc(-c5cnc(N)nc5)cc4)CCC3)c[nH]c12 [Example 6, 3-[1-[4-(2-aminopyrimidin-5-yl)phenyl]cyclobutyl]-N-methyl-1H-indole-7-carboxamide] | 29 nM | 1.5 nM
CN(C)C(=O)c1cccc2c(C3(c4ccc(-c5cnc(N)nc5)cc4)CCC3)c[nH]c12 [Example 7, 3-{1-[4-(2-aminopyrimidin-5-yl)phenyl]cyclobutyl}-N,N-dimethyl-1H-indole-7-carboxamide] | 210 nM | 2.1 nM
Cc1ccc(-c2coc(C3(c4ccc(-c5cnc(N)nc5)cc4)CCC3)n2)cn1 [Example 8, 5-(4-{1-[4-(6-methylpyridin-3-yl)-1,3-oxazol-2-yl]cyclobutyl}phenyl)pyrimidin-2-amine] | 410 nM | 2.8 nM
Cc1nc(CNC(=O)c2cccc3c(C4(c5ccc(-c6cnc(N)nc6)cc5)CCC4)c[nH]c23)no1 [Example 9, 3-{1-[4-(2-aminopyrimidin-5-yl)phenyl]cyclobutyl}-N-[(5-methyl-1,2,4-oxadiazol-3-yl)methyl]-1H-indole-7-carboxamide] | 27 nM | 2.2 nM
CCc1nc(CN(C)C(=O)c2cccc3c(C4(c5ccc(-c6cnc(N)nc6)cc5)CCC4)c[nH]c23)no1 [Example 10, 3-{1-[4-(2-aminopyrimidin-5-yl)phenyl]cyclobutyl}-N-[(5-ethyl-1,2,4-oxadiazol-3-yl)methyl]-N-methyl-1H-indole-7-carboxamide] | 340 nM | 2.4 nM
Cc1nnc(CN(C)C(=O)c2cccc3c(C4(c5ccc(-c6cnc(N)nc6)cc5)CCC4)c[nH]c23)o1 [Example 11, 3-{1-[4-(2-aminopyrimidin-5-yl)phenyl]cyclobutyl}-N-methyl-N-[(5-methyl-1,3,4-oxadiazol-2-yl)methyl]-1H-indole-7-carboxamide] | 230 nM | 3.3 nM
CCc1noc(CN(CC)C(=O)c2cccc3c(C4(c5ccc(-c6cnc(N)nc6)cc5)CCC4)c[nH]c23)n1 [Example 12, 3-{1-[4-(2-aminopyrimidin-5-yl)phenyl]cyclobutyl}-N-ethyl-N-[(3-ethyl-1,2,4-oxadiazol-5-yl)methyl]-1H-indole-7-carboxamide] | 680 nM | 2.7 nM
Cc1cc(CN(C)C(=O)c2cccc3c(C4(c5ccc(-c6cnc(N)nc6)cc5)CCC4)c[nH]c23)[nH]n1 [Example 13, 3-{1-[4-(2-aminopyrimidin-5-yl)phenyl]cyclobutyl}-N-methyl-N-[(3-methyl-1H-pyrazol-5-yl)methyl]-1H-indole-7-carboxamide] | 320 nM | 1.4 nM
Cc1ccc(-c2cnc(C3(c4ccc(-c5cnc(N)nc5)cc4)CCC3)[nH]2)cn1 [Example 14, 5-(4-{1-[5-(6-methylpyridin-3-yl)-1H-imidazol-2-yl]cyclobutyl}phenyl)pyrimidin-2-amine] | > 5000 nM | 30 nM
Cc1ccc(-c2cnc(C3(c4ccc(-c5cnc(N)nc5)cc4)CCC3)s2)cn1 [Example 15, 5-(4-{1-[5-(6-methylpyridin-3-yl)-1,3-thiazol-2-yl]cyclobutyl}phenyl)pyrimidin-2-amine] | 220 nM | 1.8 nM
Cc1ccc(-c2cnc(C3(c4ccc(-c5cnc(N)nc5)cc4)CCC3)o2)cn1 [Example 16, 5-(4-{1-[5-(6-methylpyridin-3-yl)-1,3-oxazol-2-yl]cyclobutyl}phenyl)pyrimidin-2-amine] | 1400 nM | 7.1 nM
Cc1cc(CN(C)C(=O)c2cccc3c(C4(c5ccc(-c6cnc(N)nc6)cc5)CCC4)c[nH]c23)no1 [Example 17, 3-{1-[4-(2-aminopyrimidin-5-yl)phenyl]cyclobutyl}-N-methyl-N-[(5-methyl-1,2-oxazol-3-yl)methyl]-1H-indole-7-carboxamide] | 250 nM | 3.4 nM
Cc1ccc(-c2cc(C3(c4ccc(-c5cnc(N)nc5)cc4)CCC3)[nH]n2)cn1 [Example 18, 5-(4-{1-[5-(6-methylpyridin-3-yl)-1H-pyrazol-3-yl]cyclobutyl}phenyl)pyrimidin-2-amine] | 680 nM | 4 nM
Cc1ccc(-c2cc(C3(c4ccc(-c5cnc(N)nc5)cc4)CCC3)n(C)n2)cn1 [Example 19, 5-(4-{1-[1-methyl-3-(6-methylpyridin-3-yl)-1H-pyrazol-5-yl]cyclobutyl}phenyl)pyrimidin-2-amine] | > 5000 nM | 510 nM
Cc1ccc(-c2cc(C3(c4ccc(-c5cnc(N)nc5)cc4)CCC3)nn2C)cn1 [Example 20, 5-(4-{1-[1-methyl-5-(6-methylpyridin-3-yl)-1H-pyrazol-3-yl]cyclobutyl}phenyl)pyrimidin-2-amine] | 430 nM | 5.1 nM
CC(C)C(C)(c1ccc(-c2cnc(N)nc2)cc1)c1nc(N2CCNCC2)no1 (stereo not shown) [Example 21, 5-[4-[1,2-dimethyl-1-(3-piperazin-1-yl-1,2,4-oxadiazol-5-yl)propyl]phenyl]pyrimidin-2-amine; formic acid] | 1600 nM | 38 nM
CC(C)C(C)(c1ccc(-c2cnc(N)nc2)nc1)c1nc(-c2cnn(C)c2)no1 (stereo not shown) [Example 22, 5-(5-{3-methyl-2-[3-(1-methyl-1H-pyrazol-4-yl)-1,2,4-oxadiazol-5-yl]butan-2-yl}pyridin-2-yl)pyrimidin-2-amine] | 710 nM | 44 nM
COc1cncc(-c2ccc(C(c3ncc(Br)s3)C(C)C)cc2)c1 (stereo not shown) [Example 24, 5-bromo-2-[1-[4-(5-methoxy-3-pyridyl)phenyl]-2-methyl-propyl]thiazole] | > 5000 nM | 890 nM
COc1cncc(-c2ccc(C(c3ncc(-c4ccc(CO)nc4)s3)C(C)C)cc2)c1 (stereo not shown) [Example 25, [5-(2-{1-[4-(5-methoxypyridin-3-yl)phenyl]-2-methylpropyl}-1,3-thiazol-5-yl)pyridin-2-yl]methanol] | > 5000 nM | 36 nM
CN(C)CCn1cc(-c2cc([C@@](C)(c3ccc(-c4cnc(N)nc4)cc3)C3CC3)no2)cn1 [Example 26, 5-{4-[(1R)-1-cyclopropyl-1-(5-{1-[2-(dimethylamino)ethyl]-1H-pyrazol-4-yl}-1,2-oxazol-3-yl)ethyl]phenyl}pyrimidin-2-amine] | 39 nM | 4.6 nM
COc1cncc(-c2ccc(C(C)(c3cn(Cc4ccccn4)c4ccccc34)C(C)C)cc2)c1 (stereo not shown) [Example 27, 3-{2-[4-(5-methoxypyridin-3-yl)phenyl]-3-methylbutan-2-yl}-1-(pyridin-2-ylmethyl)-1H-indole] | 1800 nM | 20 nM
